The record followed here is BindingDB's records for doi:10.1016/0960-894X(95)00299-9 (1995).

The nature of the test: Tested for 50% of inhibition of Osteoclastic acid phosphatase (OAP) activity, determined using dose-response curve.
The term IC50 denotes the concentration that inhibits the measured activity by half. Higher therefore signals weaker potency in that assay. `O=C(c1ccccc1)C(C(=O)c1ccccc1)(c1cccc2ccccc12)P(=O)(O)O` [2-(naphthalen-1-yl)-1,3-dioxo-1,3-diphenylpropan-2-ylphosphonic acid] had a half-maximal inhibitory concentration (IC50) of 1.4 µM.

For the compound `Cc1ccc2ccccc2c1C(CC1CCCCC1)P(=O)(O)O` (configuration not stated) [[2-Cyclohexyl-1-(2-methyl-naphthalen-1-yl)-ethyl]-phosphonic acid], the IC50 is 11 µM.

As to `O=P(O)(O)C(Cc1ccccc1)c1cccc2ccccc12` (configuration not stated) [(1-Naphthalen-1-yl-2-phenyl-ethyl)-phosphonic acid], the 50% inhibitory concentration (IC50) is 21 µM.

The compound `O=P(O)(O)Cc1cccc2ccccc12` [naphthalen-1-ylmethylphosphonic acid] had an IC50 of 30 µM.

On to `O=P(O)(O)C(Cc1ccc(-c2ccccc2)cc1)c1cccc2ccccc12` (configuration not stated) [(2-Biphenyl-4-yl-1-naphthalen-1-yl-ethyl)-phosphonic acid], for which the IC50 was determined as 6.3 µM.

Take `O=P(O)(O)C(CC1CCCCC1)c1cccc2ccccc12` (configuration not stated) [(2-Cyclohexyl-1-naphthalen-1-yl-ethyl)-phosphonic acid]: the IC50 worked out at 11.4 µM.

With `O=P(O)(O)C(Cc1ccc(Cl)cc1)c1cccc2ccccc12` (configuration not stated) [[2-(4-Chloro-phenyl)-1-naphthalen-1-yl-ethyl]-phosphonic acid], the IC50 stood at 21 µM.
